Experiments:
[1] = test system: wild-type P. aeruginosa PA14; test: microbe, parasite or virus in culture; type: cell-based
Summary of the method: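 PA14 cultures diluted 1:1000, grown aerobically 17 h at 37° C with shaking with compound at 100 μM (end point) or 200 nM–200 μM (titration). Pyocyanin in filtered cell-free fluid read at 695 nm; efficacy 0% at WT level, 100% at medium background; IC50 from variable-slope sigmoidal fit.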

[2] = test system: A549 human lung cells infected with P. aeruginosa PA14; test: A549 human lung cell infection (propidium iodide uptake); type: cell-based; conditions: wild-type and lasR mutant strains; 100 μM compound
Procedure: Methods. Human A549 cells were grown in CellStar tissue culture flasks. Prior to infection, the A549 cells were treated with trypsin-EDTA (CellGro), split, counted, and aliquotted into 96 well plates at 20,000 mammalian cells/well (cell counts were estimated using Trypan Blue (CellGro) exclusion). Cells were grown for 20 hr at 37° C. in DMEM (Invitrogen). Cells were washed 3× with warm PBS (Gibco). 100 μL of “master mix” was added to each well for each condition. Master mix contained 1 mL pre-warmed-PBS, 5 μL of 2 mg/mL propidium iodide (Bioprobes), 1 μL of a 100 mM inhibitor stock or DMSO, and 10 μL of OD600=2 P. aeruginosa PA14 grown in the presence of mBTL or DMSO. Infections were monitored using an EnVision plate reader every 2 hr with the RFP filter supplied by GE.

P. aeruginosa PA14 = test: Microfluidic flow cell clogging (time until clogging); type: cell-based; conditions: wild-type P. aeruginosa PA14, 100 μM mBTL
Procedure: Microfluidic Flow Cells. Methods. Overnight P. aeruginosa PA14 cultures were back-diluted 1:1000 into 800 mL of tryptone broth (1% tryptone in H2O) with or without 100 μM mBTL and grown to mid-logarithmic phase (OD600=0.5). These cultures were used to fill 100 mL reservoirs that fed into microfluidic flow channels via Tygon tubing with an inner diameter of 2.4 mm. Similar tubing connected the outlet of the microfluidic channel to a collection dish on an analytical balance controlled via LabVIEW. The elevation of the culture reservoir above the collection dish on the balance set the constant pressure difference that drove the flow through the microfluidic channel. The microfluidic channel is 200 μm wide, 90 μm high, and contains a sequence of 37 bends that mimic corners in porous materials. The weight of the effluent culture was measured as a function of time t with measurement intervals of 4 s, and the data were converted into a flow rate Q(t) via the equation
[formula] where Δt=30 s and the density is assumed to be that of water, 1 kg/L. To the resulting flow rate time series Q(t), the function
[formula] was fitted which yields the measurement of the time until clogging (corresponding to the time at which the flow rate declined to 50% of its baseline value Q0).

RhlR = target: T1, RhlR (Pseudomonas aeruginosa, UniProt P54292); test: RhlR-GFP assay (rhlA-gfp reporter in recombinant E. coli); type: cell-based, P. aeruginosa
T1 construct: expressed in transfected cells; host or cells: E. coli BL21-Gold (DE3) carrying pET23b-rhlR
T1 sequence (P54292 whole entry): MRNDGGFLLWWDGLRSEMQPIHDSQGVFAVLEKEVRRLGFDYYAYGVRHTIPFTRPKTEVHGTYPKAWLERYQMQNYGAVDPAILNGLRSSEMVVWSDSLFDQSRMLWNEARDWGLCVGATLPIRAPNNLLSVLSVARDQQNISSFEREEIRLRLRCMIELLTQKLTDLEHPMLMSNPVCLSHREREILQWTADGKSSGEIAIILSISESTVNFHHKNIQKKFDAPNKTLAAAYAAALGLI
Procedure: Methods. The LasR-GFP assays were performed in E. coli strain BL21 DE3 Gold (Agilent) carrying pET23b (Novagen) containing lasR (maintained with 100 μg/mL ampicillin) and carrying plasmid pEVS141 (31) containing the rsaL promoter driving expression of gfp (maintained with […] of kanamycin.) The RhlR-GFP assays were performed in E. coli strain BL21 DE3 Gold (Agilent) carrying pET23b (Novagen) containing rhlR (maintained with 100 μg/mL ampicillin) and carrying plasmid pEVS141 containing the rhlA promoter driving expression of gfp (maintained with 50 μg/mL of kanamycin.) These E. coli strains were grown overnight and subcultured into fresh medium with appropriate antibiotics at a 1:100 dilution and grown shaking for 8 hr at 37° C. for the LasR-GFP strain and 12 hr for the RhlR-GFP construct. 50 nM 3OC12-HSL or 20 μM C4-HSL was added to the LasR-GFP and RhlR-GFP preparations, respectively. Compounds were tested at 1 mM for antagonism and at 100 nM or 20 μM for agonism. These concentrations were chosen for agonism studies to match the concentrations of autoinducers used in the experiments. For antagonism studies, the EC95 concentration was used for each receptor. GFP was measured on an Envision plate reader.
The LasR-GFP assays were performed in E. coli strain BL21 DE3 Gold (Agilent) carrying pET23b (Novagen) containing lasR (maintained with 100 μg/mL ampicillin) and carrying plasmid pEVS141 (31) containing the rsaL promoter driving expression of gfp (maintained with 50 μg/mL of kanamycin.) The RhlR-GFP assays were performed in E. coli strain BL21 DE3 Gold (Agilent) carrying pET23b (Novagen) containing rhlR (maintained with 100 μg/mL ampicillin) and carrying plasmid pEVS141 (31) containing the rhlA promoter driving expression of gfp (maintained with 50 μg/mL of kanamycin.) These E. coli strains were grown overnight and subcultured into fresh medium with appropriate antibiotics at a 1:100 dilution and grown shaking for 8 hr at 37° C. for the LasR-GFP strain and 12 hr for the RhlR-GFP construct. 50 nM 3OC12-HSL or 20 μM C4-HSL was added to the LasR-GFP and RhlR-GFP preparations, respectively. Compounds were tested at 1 mM for antagonism and at 100 nM or 20 μM for agonism. These concentrations were chosen for agonism studies to match the concentrations of autoinducers used in our experiments. For antagonism studies, we used the EC95 concentration for each receptor. GFP was measured on an Envision plate reader.

meta-bromothiolactone [mBTL]
IC50 ([1]; WT P. aeruginosa PA14, 17 hr growth, titration, read-out: IC50 for inhibition of pyocyanin production): 8 µM
inhibition of pyocyanin production (in words) ([1]; wild-type P. aeruginosa PA14, end point assays at 100 μM): potent inhibition of pyocyanin
killing of A549 cells by P. aeruginosa [2]: reduces killing
clogging of microfluidic chambers (P. aeruginosa PA14): phenotype indistinguishable from the mutants
inhibition of RhlR activation of rhlA-gfp (antagonism) (RhlR; mBTL at 1 mM, C4-HSL at EC95 (20 μM)): 43%
RhlR partial agonism (gfp expression, cognate autoinducer = 100%) (RhlR; no autoinducer, compound at 20 μM): 80%

— US9751851B2, “Molecules and compositions that inhibit gram negative bacteria and their uses” (THE TRUSTEES OF PRINCETON UNIVERSITY, priority 2013, dated 2017)
